{"source": "ChEMBL document CHEMBL3856263", "about": "“Sesquiterpenes from the roots of Lindera strychnifolia with inhibitory effects on nitric oxide production in RAW 264.7 cells” (Bioorg Med Chem Lett, 2016)", "key": {"Mus musculus": {"organism": "Mus musculus", "assay": "Cytotoxicity against mouse RAW264.7 cells at <25 uM by MTT assay", "format": "toxicity, cell-based"}, "[1]": {"assay": "Antiinflammatory activity against LPS-induced mouse RAW264.7 cells assessed as inhibition of NO production pretreated for 1 hr followed by LPS stimulation for 24 hrs by Griess assay", "format": "functional, cell-based"}}}
{"smiles": "C=C1[C@H]2CC3=C(C)C(=O)O[C@H]3C[C@]2(C)[C@H]2C[C@@H]12", "values": [{"measurement": "Activity", "setting": "Mus musculus", "value": "Non-Toxic"}, {"measurement": "IC50", "setting": "[1]", "value": 15.4, "unit": "µM"}]}
{"smiles": "COC(=O)/C(C)=C1\\C(=O)O[C@]2(C)[C@@H]3C[C@@H]3[C@@](C)(CO)[C@H]2[C@@H]1O", "values": [{"measurement": "Activity", "setting": "Mus musculus", "value": "Non-Toxic"}, {"measurement": "IC50", "setting": "[1]", "value": "> 25", "unit": "µM"}]}
{"smiles": "C=C1Cc2occ(C)c2C2C=C(CC[C@H]1O)C(=O)O2", "note": "(stereo not given in full)", "values": [{"measurement": "Activity", "setting": "Mus musculus", "value": "Non-Toxic"}, {"measurement": "IC50", "setting": "[1]", "value": 9, "unit": "µM"}]}
{"smiles": "C=C1[C@H]2C[C@H]2[C@]2(C)C[C@]3(O)OC(=O)C(C)=C3[C@H](OC(C)=O)[C@H]12", "values": [{"measurement": "Activity", "setting": "Mus musculus", "value": "Non-Toxic"}]}
{"smiles": "C=C1[C@H]2C[C@H]2[C@]2(C)C[C@@]3(O)OC(=O)C(C)=C3[C@H](OC)[C@H]12", "values": [{"measurement": "Activity", "setting": "Mus musculus", "value": "Non-Toxic"}, {"measurement": "IC50", "setting": "[1]", "value": 21.6, "unit": "µM"}]}
{"smiles": "CC1=C2[C@@H]3OC(=O)[C@@]4(CC/C=C(\\C)C[C@@]2(O)OC1=O)O[C@@H]34", "values": [{"measurement": "Activity", "setting": "Mus musculus", "value": "Non-Toxic"}, {"measurement": "IC50", "setting": "[1]", "value": "> 25", "unit": "µM"}]}
{"smiles": "C=C1CC=C[C@@]2(C)C[C@@]3(O)OC(=O)C(C)=C3C[C@H]12", "values": [{"measurement": "Activity", "setting": "Mus musculus", "value": "Non-Toxic"}, {"measurement": "IC50", "setting": "[1]", "value": "> 25", "unit": "µM"}]}
{"smiles": "CC(=O)O[C@H]1C2=C(C)C(=O)O[C@@]2(O)C[C@@]2(C)[C@@H]3C[C@@H]3[C@](C)(O)[C@@H]12", "values": [{"measurement": "Activity", "setting": "Mus musculus", "value": "Non-Toxic"}, {"measurement": "IC50", "setting": "[1]", "value": 12.8, "unit": "µM"}]}
{"smiles": "CC1=C2C[C@@H]3[C@@](C)(O)[C@H]4C[C@H]4[C@]3(C)C[C@]2(O)OC1=O", "values": [{"measurement": "Activity", "setting": "Mus musculus", "value": "Non-Toxic"}, {"measurement": "IC50", "setting": "[1]", "value": 9.6, "unit": "µM"}]}
{"smiles": "C=C1[C@H]2C[C@H]2[C@]2(C)C[C@@]3(O)OC(=O)C(C)=C3[C@H](OC(C)=O)[C@H]12", "values": [{"measurement": "Activity", "setting": "Mus musculus", "value": "Non-Toxic"}]}
{"smiles": "CC1=C2C[C@@H]3[C@@](C)(O)[C@H]4C[C@H]4[C@]3(C)C[C@@H]2OC1=O", "values": [{"measurement": "Activity", "setting": "Mus musculus", "value": "Non-Toxic"}]}
{"smiles": "C=C1[C@H]2C[C@H]2[C@]2(C)C[C@H]3OC(=O)C(C)=C3[C@H](O)[C@H]12", "values": [{"measurement": "Activity", "setting": "Mus musculus", "value": "Non-Toxic"}, {"measurement": "IC50", "setting": "[1]", "value": 12.3, "unit": "µM"}]}
{"smiles": "CO[C@@]1(C)[C@H]2C[C@H]2[C@]2(C)C[C@@H]3OC(=O)C(C)=C3C[C@@H]21", "values": [{"measurement": "Activity", "setting": "Mus musculus", "value": "Non-Toxic"}, {"measurement": "IC50", "setting": "[1]", "value": 6.3, "unit": "µM"}]}
{"smiles": "CC1=C2C(=O)[C@@H]3[C@](C)(O)[C@H]4C[C@H]4[C@@]3(C)C[C@H]2OC1=O", "values": [{"measurement": "Activity", "setting": "Mus musculus", "value": "Non-Toxic"}, {"measurement": "IC50", "setting": "[1]", "value": 22.5, "unit": "µM"}]}
{"smiles": "CC1=C2[C@H](O)[C@@H]3[C@@](C)(O)[C@H]4C[C@H]4[C@]3(C)C[C@]2(O)OC1=O", "values": [{"measurement": "Activity", "setting": "Mus musculus", "value": "Non-Toxic"}, {"measurement": "IC50", "setting": "[1]", "value": 14.6, "unit": "µM"}]}
{"smiles": "N=C(N)NN", "note": "[PIMAGEDINE]", "values": [{"measurement": "IC50", "setting": "[1]", "value": 18.4, "unit": "µM"}]}
{"smiles": "Cc1coc2c1[C@H]1C=C(CC[C@@H]3O[C@@]3(C)C2)C(=O)O1", "note": "[PSEUDONEOLINDERANE]", "values": [{"measurement": "Activity", "setting": "Mus musculus", "value": "Non-Toxic"}, {"measurement": "IC50", "setting": "[1]", "value": "> 25", "unit": "µM"}]}
